The results in this text go back to patent US20060073994A1, “Liquid detergent composition” (Conopco, Inc., d/b/a UNILEVER, priority 2004, published 2006).

The assay relates to Protease enzyme. Kind of assay: Residual activity of protease enzyme in liquid detergent formulation with added perfume component after storage. Format: biochemical. Particulars: 0.06% by weight perfume component added to 'base' liquid formulation; 2 weeks storage at 37° C.; activity determined at 40° C. in TRIS pH 9 buffer, tetrapeptide substrate; relative to t=0. As for the experimental part:
The following ‘base’ liquid detergent formulation was prepared: […]
The residual activity of the protease enzyme in all thus-formed formulations after 2 weeks storage at 37° C., was determined at 40° C. in a TRIS pH 9 buffer and using tetrapeptide as substrate. For this determination, the following protocol was used: Samples of 70 mg of the tested liquid formulation were diluted in 10.00 ml MilliQ water. 10 μl of this solution was added to an assay of 205 μl containing 74.4 mM TRIS pH9 and 0.494 mM tetrapeptide (succinyl-Ala-Ala-Pro-Phe-p-Nitroanilide). The absorbance of the tested samples at a wavelength of […] was measured for 15 minutes at 40° C., using a spectrophotometer. The absolute changes in absorbance as compared to the absorbance measured on a freshly prepared calibration sample were correlated to the measured activity of such freshly prepared sample. The measured protease enzyme activity is expressed as GU/ml.
The residual enzyme activity (expressed as %) is the enzyme activity after storage of the liquid formulation concerned divided by the enzyme activity measured at t=0.

In the case of `COC(=O)c1ccccc1N` [Methyl anthranilate], the “Residual activity after 2 weeks” value is 70%.

In the case of `O=Cc1ccccc1` [Benzaldehyde], the “Residual activity after 2 weeks” value turned out to be 67%.

Turning to `CC1=CCC(=C(C)C)CC1` [Terpinolene], the “Residual activity after 2 weeks” value was 47%.

Regarding `CC(C=O)Cc1ccc(C(C)(C)C)cc1` (stereo not drawn) [Lilial], the “Residual activity after 2 weeks” value is on record as 48%.

`C=C(C)[C@H]1CC=C(C)CC1` [Limonene]: the “Residual activity after 2 weeks” value worked out at 60%.

Turning to `CCCCCCCC=O` [Octanal], the “Residual activity after 2 weeks” value stood at 44%.

In the case of `CC(C)=CCCC1=CCC(C)(C=O)CC1` (stereo not drawn) [Precyclemone], the “Residual activity after 2 weeks” value stood at 74%.

Regarding `CCCCCCC(C=O)=Cc1ccccc1` [Hexylcinnamic aldehyde], the “Residual activity after 2 weeks” value came to 81%.

Take `COc1cc(C=O)ccc1O` [Vanillin]: the “Residual activity after 2 weeks” value is on record as 43%.

Regarding `CC(CC=O)c1ccccc1` (stereo not drawn) [Trifernal], the “Residual activity after 2 weeks” value is given as 74%.

On to `CC1=CC(C)C(C=O)CC1` (stereo not drawn) [Cyclal C], for which the “Residual activity after 2 weeks” value is reported as 45%.

For the compound `CC(=O)C1(C)CC2=C(CCCC2(C)C)CC1C` (stereo not drawn) [Iso e super], the “Residual activity after 2 weeks” value is reported as 75%.

Consider `CC1=CCC(C(C)C)=CC1` [Gamma terpinolene], for which the “Residual activity after 2 weeks” value was found to be 54%.

As for `C/C=C\C(=O)C1C(C)=CCCC1(C)C` (stereo not drawn) [Alpha damascone], the “Residual activity after 2 weeks” value came out at 68%.

`CC(C)=CCCC(C)CC=O` (stereo not drawn) [Citronellal]: the “Residual activity after 2 weeks” value came out at 62%.

In the case of `CC(C)=C1CC[C@@H](C)CC1=O` [Pulegone], the “Residual activity after 2 weeks” value was 58%.

On to Vertofix coeur, for which the “Residual activity after 2 weeks” value is given as 68%.

Regarding `CCCCCCCCCC/C=C/C=O` [Tridecylenic aldehyde], the “Residual activity after 2 weeks” value came out at 45%.

With `CC(C)=CC1CC(C)CCO1` (stereo not drawn) [Rose oxide], the “Residual activity after 2 weeks” value is on record as 60%.

In the case of `CC(C)=CCCC(C)=CC=O` [Citral], the “Residual activity after 2 weeks” value turned out to be 36%.

As to `O=C/C=C/c1ccccc1` [Cinnamic aldehyde], the “Residual activity after 2 weeks” value came out at 58%.

`CC(=O)OCc1ccccc1` [Benzyl acetate]: the “Residual activity after 2 weeks” value turned out to be 69%.

Turning to `CCC(C)(O)CCCC(C)C` (stereo not drawn) [Tetra hydrolinalool], the “Residual activity after 2 weeks” value came to 65%.

On to `N#CC(=C1CCCCC1)c1ccccc1` [Peonile], for which the “Residual activity after 2 weeks” value was 73%.
